Assays:
[1] = Crystal suspensions of microcrystalline paclitaxel with different proportions of tri-O-acylglycerol; format: physicochemical; settings: tri-O-acylglycerol:paclitaxel 20:80, after 100 h
Description: For this purpose, further investigation was carried out using solutions of trioctanoylglycerol or tridecanoylglycerol with different proportions of tri-O-acylglycerol to find out the optimum mass ratio of tri-O-acylglycerol to microcrystalline paclitaxel. To prepare the solutions, the appropriate amount of each tri-O-acylglycerol was dissolved in 14 g ethyl acetate (15.6 mL). […] Subsequently, homogenization and filtration were performed.

[2] = Preparation and stability of crystal suspensions of microcrystalline paclitaxel with solutions of different tri-O-acylglycerols; settings: 100 h and temperature elevation to 50° C.
From the text: In the first step, solutions of tri-O-acylglycerols were first prepared in a solvent mixture. Subsequently, the solutions were combined with microcrystals of paclitaxel to investigate which tri-O-acylglycerols could be used to obtain stable crystal suspensions. […] For the preparation of the solutions, an ethyl acetate/heptane solvent mixture was used here as an example.
To prepare the solutions, the respective tri-O-acylglycerol was first dissolved in a polar organic solvent and then a non-polar solvent was added.
To prepare the solutions, 770 mg of the respective tri-O-acylglycerol were dissolved in 14 g ethyl acetate (15.6 mL). Then, 57.4 g of n-heptane (84.4 mL) was added.
Subsequently, homogenization and filtration were performed. The total volume of the solvent mixture is 100 mL.
To a precisely weighed amount of dry microcrystals of the previously prepared paclitaxel, a defined amount of the solutions containing tri-O-acylglycerol and optionally antioxidant is carefully added.
To check whether crystal suspension can be prepared, to each 200 mg of paclitaxel in the form of microcrystals were carefully added 10 mL of one of the solutions 1a) to 1j) at room temperature. Six mixtures of 10 mL of solution for each solution were prepared. After combining, it was tested whether the microcrystals of paclitaxel dissolved directly in the solutions.
To evaluate the crystal size, particle size distribution (i.e., crystal size distribution), and shape of the crystals, a sample was taken with a Pasteur pipette in each case and a drop was placed on the slide of the SEM sample plate. SEM images were taken at 200× and 1000× magnification for evaluation.
To evaluate the crystal size, particle size distribution (i.e., crystal size distribution), and shape of the crystals, one sample was taken from each using a Pasteur pipette and one drop was placed on the foil of the SEM sample plate. An additional sample was taken from the sediment and one drop was placed on the slide of the SEM sample plate. SEM images were taken at 200× and 1000× magnification for evaluation. SEM images were taken at 200 and 1000× magnification for evaluation.
To prepare the solutions, 770 mg of the respective tri-O-acylglycerol were dissolved in 14 g ethyl acetate (15.6 mL). Then, 57.4 g of n-heptane (84.4 mL) was added. Subsequently, homogenization and filtration were performed. The total volume of the solvent mixture is 100 mL.
Three mixtures of 10 mL of solution for each solution were prepared. After combining, it was tested whether the microcrystals dissolved directly in these solutions.

[3] = Uniformity of coating and recovery rate of active agent on coated balloon catheters
From the text: Balloon catheters 4×40 mm were coated with a 2% PTX suspension containing trioctanoylglycerol (20 wt % based on PTX) using a droplet dosing technique in a microdosing method such as the pipetting method, or droplet dragging method. […] The studies on the recovery rate of active agent on balloon catheters divided into equally sized segments confirm the uniformity of the coating and thus the success in using a crystal suspension as well as a 100% recovery rate
Balloon catheters 4×40 mm were each coated with a 2% PTX suspension containing tridodecanoylglycerol or tritetradecanoylglycerol (20 wt % based on PTX) using a drop dosing technique in a micro dosing method such as the pipetting method or drop dragging method.
For this purpose, the coated weighed balloon is fixed and inflated. The balloon is then cut with a scalpel into pieces of as equal size as possible, e.g. a 40 mm long balloon into 4 pieces, a 120 mm long balloon can be divided into 6 pieces. First, cut the balloon in half lengthwise and measure the layer thickness with a micrometer. Then the balloon is divided and the pieces are weighed and also the layer thicknesses are measured with the micrometer.
The coatings are each dissolved in a defined amount of acetone and the amount of active agent is determined via HPLC. The results are compared with each other, taking into account the balloon section areas.

[4] = cited from earlier work

Structure (SMILES)	stability of crystal suspension at ratio 20:80 [1]	stability of crystal suspension [2]	stability and flexibility of coating [3]	solubility in water [4]
CCCCCCCC(=O)OCC(COC(=O)CCCCCCC)OC(=O)CCCCCCC [trioctanoylglycerol]	excellent stable	remained stable	particularly stable and flexible coating	practically insoluble
CCCCCCCCCC(=O)OCC(COC(=O)CCCCCCCCC)OC(=O)CCCCCCCCC [tridecanoylglycerol]	excellent stable	remained stable	particularly stable and flexible coating	practically insoluble

— patent publication US20240082463A1, “COATED MEDICAL PRODUCT” (HEMOTEQ AG, priority 2020, published 2024)
